Measurements from ChEMBL document CHEMBL4507265 (2021).

What was measured:
[1] = biological target: Receptor-type tyrosine-protein kinase FLT3 (Homo sapiens) (UniProt P36888); settings: Compound concentration 1000.0 nM
[2] = biological target: Mitogen-activated protein kinase 11 (Homo sapiens) (UniProt Q15759); settings: Compound concentration 1000.0 nM
[3] = biological target: Ribosomal protein S6 kinase alpha-3 (Homo sapiens) (UniProt P51812); settings: Compound concentration 1000.0 nM
[4] = biological target: Protein-tyrosine kinase 2-beta (Homo sapiens) (UniProt Q14289); settings: Compound concentration 1000.0 nM
[5] = biological target: Serine/threonine-protein kinase MRCK gamma (Homo sapiens) (UniProt Q6DT37); settings: Compound concentration 1000.0 nM
[6] = biological target: Serine/threonine-protein kinase VRK2 (Homo sapiens) (UniProt Q86Y07); settings: Compound concentration 1000.0 nM
[7] = biological target: Inhibitor of nuclear factor kappa-B kinase subunit alpha (Homo sapiens) (UniProt O15111); settings: Compound concentration 1000.0 nM
[8] = biological target: Alpha-2C adrenergic receptor (Homo sapiens) (UniProt P18825); settings: Compound concentration 10.0 uM
Sequence of Alpha-2C adrenergic receptor (Homo sapiens) (P18825 whole entry): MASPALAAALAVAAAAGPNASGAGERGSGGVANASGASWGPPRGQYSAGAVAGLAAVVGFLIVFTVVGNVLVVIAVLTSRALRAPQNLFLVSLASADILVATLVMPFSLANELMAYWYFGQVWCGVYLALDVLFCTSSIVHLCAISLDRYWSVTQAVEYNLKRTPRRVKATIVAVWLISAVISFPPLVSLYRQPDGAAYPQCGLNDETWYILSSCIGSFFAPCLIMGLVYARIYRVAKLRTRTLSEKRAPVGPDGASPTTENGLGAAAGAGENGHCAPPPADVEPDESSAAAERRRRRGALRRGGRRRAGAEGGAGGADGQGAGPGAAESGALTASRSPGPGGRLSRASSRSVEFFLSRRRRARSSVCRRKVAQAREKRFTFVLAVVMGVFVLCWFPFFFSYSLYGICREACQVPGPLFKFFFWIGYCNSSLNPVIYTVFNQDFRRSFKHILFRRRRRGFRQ

[9] = biological target: Dual specificity mitogen-activated protein kinase kinase 2 (Homo sapiens) (UniProt P36507); settings: Compound concentration 1000.0 nM
[10] = system: Tyrosine-protein kinase ABL1 (Homo sapiens), P00519 [T315I]; settings: Compound concentration 1000.0 nM
[11] = biological target: Receptor-interacting serine/threonine-protein kinase 1 (Homo sapiens) (UniProt Q13546); settings: Compound concentration 1000.0 nM
[12] = biological target: Serine/threonine-protein kinase PknB (Mycobacterium tuberculosis) (UniProt P9WI81); settings: Compound concentration 1000.0 nM
[13] = biological target: Serine/threonine-protein kinase TNNI3K (Homo sapiens) (UniProt Q59H18); settings: Compound concentration 1000.0 nM
[14] = biological target: Inhibitor of nuclear factor kappa-B kinase subunit epsilon (Homo sapiens) (UniProt Q14164); settings: Compound concentration 1000.0 nM
[15] = biological target: Tyrosine-protein kinase JAK1 (Homo sapiens) (UniProt P23458); settings: Compound concentration 1000.0 nM
[16] = biological target: Serine/threonine-protein kinase 17B (Homo sapiens) (UniProt O94768); settings: Compound concentration 1000.0 nM
Sequence of Serine/threonine-protein kinase 17B (Homo sapiens) (O94768 whole entry): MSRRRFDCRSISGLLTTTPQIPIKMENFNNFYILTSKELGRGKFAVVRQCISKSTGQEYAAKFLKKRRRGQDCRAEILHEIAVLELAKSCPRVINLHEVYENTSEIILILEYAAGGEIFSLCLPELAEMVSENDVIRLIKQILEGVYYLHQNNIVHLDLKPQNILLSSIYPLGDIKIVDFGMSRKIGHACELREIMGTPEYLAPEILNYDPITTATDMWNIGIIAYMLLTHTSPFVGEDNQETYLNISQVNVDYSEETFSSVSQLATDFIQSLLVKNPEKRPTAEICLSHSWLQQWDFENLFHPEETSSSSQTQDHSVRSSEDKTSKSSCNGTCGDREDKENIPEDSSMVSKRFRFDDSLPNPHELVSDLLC

[17] = system: Receptor-type tyrosine-protein kinase FLT3 (Homo sapiens), P36888 [UNDEFINED MUTATION]; settings: Compound concentration 1000.0 nM
[18] = biological target: Serine/threonine-protein kinase BRSK2 (Homo sapiens) (UniProt Q8IWQ3); settings: Compound concentration 1000.0 nM
[19] = biological target: 5-hydroxytryptamine receptor 2A (Homo sapiens) (UniProt P28223); settings: Compound concentration 10.0 uM
[20] = biological target: Tyrosine-protein kinase JAK2 (Homo sapiens) (UniProt O60674); settings: Compound concentration 1000.0 nM
[21] = biological target: Tyrosine-protein kinase Tec (Homo sapiens) (UniProt P42680); settings: Compound concentration 1000.0 nM
[22] = biological target: Macrophage-stimulating protein receptor (Homo sapiens) (UniProt Q04912); settings: Compound concentration 1000.0 nM
[23] = biological target: D(1A) dopamine receptor (Homo sapiens) (UniProt P21728); settings: Compound concentration 10.0 uM
[24] = biological target: Calcium/calmodulin-dependent protein kinase type 1 (Homo sapiens) (UniProt Q14012); settings: Compound concentration 1000.0 nM
[25] = biological target: Tyrosine-protein kinase ITK/TSK (Homo sapiens) (UniProt Q08881); settings: Compound concentration 1000.0 nM
[26] = system: Receptor-type tyrosine-protein kinase FLT3 (Homo sapiens), P36888 [D835H]; settings: Compound concentration 1000.0 nM
[27] = biological target: Serine/threonine-protein kinase Nek4 (Homo sapiens) (UniProt P51957); settings: Compound concentration 1000.0 nM
[28] = biological target: 5'-AMP-activated protein kinase catalytic subunit alpha-2 (Homo sapiens) (UniProt P54646); settings: Compound concentration 1000.0 nM
[29] = biological target: Phosphatidylinositol 5-phosphate 4-kinase type-2 beta (Homo sapiens) (UniProt P78356); settings: Compound concentration 1000.0 nM
[30] = biological target: BDNF/NT-3 growth factors receptor (Homo sapiens) (UniProt Q16620); settings: Compound concentration 1000.0 nM
[31] = biological target: Proto-oncogene tyrosine-protein kinase Src (Homo sapiens) (UniProt P12931); settings: Compound concentration 1000.0 nM
[32] = biological target: Serine/threonine-protein kinase 24 (Homo sapiens) (UniProt Q9Y6E0); settings: Compound concentration 1000.0 nM
[33] = biological target: Serine/threonine-protein kinase WNK1 (Homo sapiens) (UniProt Q9H4A3); settings: Compound concentration 1000.0 nM
[34] = biological target: Interleukin-1 receptor-associated kinase 3 (Homo sapiens) (UniProt Q9Y616); settings: Compound concentration 1000.0 nM
[35] = biological target: Protein-tyrosine kinase 6 (Homo sapiens) (UniProt Q13882); settings: Compound concentration 1000.0 nM
[36] = biological target: Dual specificity protein kinase CLK2 (Homo sapiens) (UniProt P49760); settings: Compound concentration 1000.0 nM
Sequence of Dual specificity protein kinase CLK2 (Homo sapiens) (P49760 whole entry, looked up): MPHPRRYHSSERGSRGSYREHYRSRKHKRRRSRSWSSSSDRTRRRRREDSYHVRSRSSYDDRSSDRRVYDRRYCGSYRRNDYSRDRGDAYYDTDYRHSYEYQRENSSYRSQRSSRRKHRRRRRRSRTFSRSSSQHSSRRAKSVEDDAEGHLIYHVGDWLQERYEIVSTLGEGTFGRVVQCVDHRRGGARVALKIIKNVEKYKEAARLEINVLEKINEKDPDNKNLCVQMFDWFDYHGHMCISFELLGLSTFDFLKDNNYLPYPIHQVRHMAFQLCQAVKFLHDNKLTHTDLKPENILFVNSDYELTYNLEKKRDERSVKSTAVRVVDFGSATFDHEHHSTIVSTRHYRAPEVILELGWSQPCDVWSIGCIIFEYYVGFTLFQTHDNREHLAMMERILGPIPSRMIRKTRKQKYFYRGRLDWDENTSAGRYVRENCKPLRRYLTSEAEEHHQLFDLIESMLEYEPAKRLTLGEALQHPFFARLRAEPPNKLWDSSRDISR

[37] = biological target: MAP kinase-interacting serine/threonine-protein kinase 1 (Homo sapiens) (UniProt Q9BUB5); settings: Compound concentration 1000.0 nM
Sequence of MAP kinase-interacting serine/threonine-protein kinase 1 (Homo sapiens) (Q9BUB5 whole entry, looked up, canonical isoform): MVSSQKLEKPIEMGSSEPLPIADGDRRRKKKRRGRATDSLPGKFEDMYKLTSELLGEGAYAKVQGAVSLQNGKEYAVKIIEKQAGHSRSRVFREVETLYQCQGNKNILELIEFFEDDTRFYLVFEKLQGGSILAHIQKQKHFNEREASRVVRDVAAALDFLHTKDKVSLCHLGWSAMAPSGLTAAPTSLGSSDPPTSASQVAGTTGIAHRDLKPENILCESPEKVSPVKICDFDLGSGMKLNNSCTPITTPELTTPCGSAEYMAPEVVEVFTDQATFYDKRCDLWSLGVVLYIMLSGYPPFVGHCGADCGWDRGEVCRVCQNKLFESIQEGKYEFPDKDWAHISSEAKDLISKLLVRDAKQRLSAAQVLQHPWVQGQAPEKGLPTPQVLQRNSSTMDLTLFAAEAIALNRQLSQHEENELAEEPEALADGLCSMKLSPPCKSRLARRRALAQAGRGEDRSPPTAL

[38] = system: Phosphatidylinositol 4,5-bisphosphate 3-kinase catalytic subunit alpha isoform (Homo sapiens), P42336 [E542K]; settings: Compound concentration 1000.0 nM
[39] = biological target: Dual specificity mitogen-activated protein kinase kinase 6 (Homo sapiens) (UniProt P52564); settings: Compound concentration 1000.0 nM
[40] = biological target: Ephrin type-B receptor 1 (Homo sapiens) (UniProt P54762); settings: Compound concentration 1000.0 nM
Sequence of Ephrin type-B receptor 1 (Homo sapiens) (P54762 whole entry): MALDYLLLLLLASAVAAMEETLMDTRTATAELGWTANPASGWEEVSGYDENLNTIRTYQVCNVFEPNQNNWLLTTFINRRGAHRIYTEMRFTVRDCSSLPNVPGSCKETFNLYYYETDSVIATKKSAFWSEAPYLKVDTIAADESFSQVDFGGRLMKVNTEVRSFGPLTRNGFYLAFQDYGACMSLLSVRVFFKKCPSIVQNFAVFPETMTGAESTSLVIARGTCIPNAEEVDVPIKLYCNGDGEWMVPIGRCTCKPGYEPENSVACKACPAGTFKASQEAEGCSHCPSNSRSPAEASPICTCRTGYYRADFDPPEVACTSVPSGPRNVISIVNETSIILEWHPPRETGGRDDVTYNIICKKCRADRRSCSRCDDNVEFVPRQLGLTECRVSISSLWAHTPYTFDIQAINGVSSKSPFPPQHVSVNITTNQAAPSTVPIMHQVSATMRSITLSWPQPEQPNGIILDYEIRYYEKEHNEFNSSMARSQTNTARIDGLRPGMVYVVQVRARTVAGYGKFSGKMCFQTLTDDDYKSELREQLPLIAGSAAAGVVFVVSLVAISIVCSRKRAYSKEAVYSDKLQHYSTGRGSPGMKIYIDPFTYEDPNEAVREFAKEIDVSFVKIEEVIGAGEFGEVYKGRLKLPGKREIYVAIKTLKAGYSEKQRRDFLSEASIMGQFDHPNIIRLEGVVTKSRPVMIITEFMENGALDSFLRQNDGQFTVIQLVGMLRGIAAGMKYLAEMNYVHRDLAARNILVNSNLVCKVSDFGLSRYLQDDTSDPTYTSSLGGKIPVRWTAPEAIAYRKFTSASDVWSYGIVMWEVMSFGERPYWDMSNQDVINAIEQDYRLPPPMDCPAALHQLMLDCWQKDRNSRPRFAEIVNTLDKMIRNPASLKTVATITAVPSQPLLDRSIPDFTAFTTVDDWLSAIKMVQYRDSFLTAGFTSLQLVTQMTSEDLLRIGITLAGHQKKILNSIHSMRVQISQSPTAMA

[41] = biological target: Glycogen synthase kinase-3 beta (Homo sapiens) (UniProt P49841); settings: Compound concentration 1000.0 nM
Sequence of Glycogen synthase kinase-3 beta (Homo sapiens) (P49841 whole entry, looked up): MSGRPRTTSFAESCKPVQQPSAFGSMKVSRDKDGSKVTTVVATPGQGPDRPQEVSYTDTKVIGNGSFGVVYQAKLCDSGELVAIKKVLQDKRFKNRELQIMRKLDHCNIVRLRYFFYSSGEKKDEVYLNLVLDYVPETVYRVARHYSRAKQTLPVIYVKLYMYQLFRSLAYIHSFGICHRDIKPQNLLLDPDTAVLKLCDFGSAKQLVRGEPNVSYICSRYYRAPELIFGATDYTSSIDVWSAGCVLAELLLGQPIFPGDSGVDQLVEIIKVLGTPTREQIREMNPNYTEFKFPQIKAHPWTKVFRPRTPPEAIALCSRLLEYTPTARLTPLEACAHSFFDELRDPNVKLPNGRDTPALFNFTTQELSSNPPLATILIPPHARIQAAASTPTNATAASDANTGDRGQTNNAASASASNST

[42] = biological target: MAP kinase-activated protein kinase 2 (Homo sapiens) (UniProt P49137); settings: Compound concentration 1000.0 nM
Sequence of MAP kinase-activated protein kinase 2 (Homo sapiens) (P49137 whole entry, looked up): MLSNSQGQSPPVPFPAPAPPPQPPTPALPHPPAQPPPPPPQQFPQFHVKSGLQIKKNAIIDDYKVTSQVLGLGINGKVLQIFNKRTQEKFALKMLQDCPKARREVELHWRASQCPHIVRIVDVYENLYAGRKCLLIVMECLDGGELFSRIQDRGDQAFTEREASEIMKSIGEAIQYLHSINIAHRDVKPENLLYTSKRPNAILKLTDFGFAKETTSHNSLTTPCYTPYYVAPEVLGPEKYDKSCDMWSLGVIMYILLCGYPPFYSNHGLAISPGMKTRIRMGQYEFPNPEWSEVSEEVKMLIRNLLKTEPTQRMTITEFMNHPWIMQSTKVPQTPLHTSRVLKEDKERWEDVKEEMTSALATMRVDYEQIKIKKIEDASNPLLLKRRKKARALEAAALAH

[43] = biological target: Mitogen-activated protein kinase kinase kinase 15 (Homo sapiens) (UniProt Q6ZN16); settings: Compound concentration 1000.0 nM
Sequence of Mitogen-activated protein kinase kinase kinase 15 (Homo sapiens) (Q6ZN16 whole entry): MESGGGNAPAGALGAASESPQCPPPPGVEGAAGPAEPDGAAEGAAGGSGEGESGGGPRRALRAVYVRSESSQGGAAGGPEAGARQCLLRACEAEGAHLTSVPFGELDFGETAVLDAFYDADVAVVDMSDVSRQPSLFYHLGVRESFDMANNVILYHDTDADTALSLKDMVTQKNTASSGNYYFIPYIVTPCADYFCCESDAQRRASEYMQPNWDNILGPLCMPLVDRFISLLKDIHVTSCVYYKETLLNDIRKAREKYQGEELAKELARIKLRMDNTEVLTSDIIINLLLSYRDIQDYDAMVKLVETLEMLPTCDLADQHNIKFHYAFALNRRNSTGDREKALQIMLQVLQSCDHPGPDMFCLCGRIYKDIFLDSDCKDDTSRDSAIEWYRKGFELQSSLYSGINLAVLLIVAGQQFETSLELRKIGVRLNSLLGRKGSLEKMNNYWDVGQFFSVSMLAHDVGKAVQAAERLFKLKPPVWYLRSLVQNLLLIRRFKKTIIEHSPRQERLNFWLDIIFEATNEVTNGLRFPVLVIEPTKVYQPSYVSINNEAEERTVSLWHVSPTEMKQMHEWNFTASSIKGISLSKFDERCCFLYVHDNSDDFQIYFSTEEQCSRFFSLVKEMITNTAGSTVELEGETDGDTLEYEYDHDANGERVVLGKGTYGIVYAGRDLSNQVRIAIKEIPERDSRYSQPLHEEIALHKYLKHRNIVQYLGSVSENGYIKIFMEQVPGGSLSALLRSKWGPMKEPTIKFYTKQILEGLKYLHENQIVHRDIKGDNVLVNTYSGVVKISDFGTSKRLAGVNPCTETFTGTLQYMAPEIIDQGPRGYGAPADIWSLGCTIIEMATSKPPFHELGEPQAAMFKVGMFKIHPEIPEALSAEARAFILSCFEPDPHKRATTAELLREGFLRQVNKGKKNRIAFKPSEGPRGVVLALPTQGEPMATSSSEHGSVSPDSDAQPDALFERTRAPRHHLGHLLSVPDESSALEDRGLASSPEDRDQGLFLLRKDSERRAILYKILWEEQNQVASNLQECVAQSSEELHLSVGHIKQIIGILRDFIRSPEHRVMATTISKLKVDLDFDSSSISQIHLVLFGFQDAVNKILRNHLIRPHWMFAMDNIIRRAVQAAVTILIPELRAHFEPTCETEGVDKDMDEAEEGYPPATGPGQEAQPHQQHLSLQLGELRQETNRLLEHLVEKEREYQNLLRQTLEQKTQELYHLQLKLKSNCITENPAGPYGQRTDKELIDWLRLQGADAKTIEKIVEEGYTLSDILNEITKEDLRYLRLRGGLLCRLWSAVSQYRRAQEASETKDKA

[44] = biological target: G protein-coupled receptor kinase 3 (Homo sapiens) (UniProt P35626); settings: Compound concentration 1000.0 nM

NS(=O)(=O)c1cc(NC(=O)C2(c3ccccc3Cl)CC2)ccc1Oc1cccc(Cl)c1 [BAY-207]
residual activity [1]: 70%
residual activity [2]: 68%
residual activity [3]: 92%
residual activity [4]: 91%
residual activity [5]: 82%
residual activity [6]: 100%
residual activity [7]: 100%
inhibition [8]: 89.6%
residual activity [9]: 89%
residual activity [10]: 75%
residual activity [11]: 93%
residual activity [12]: 90%
residual activity [13]: 72%
residual activity [14]: 70%
residual activity [15]: 90%
residual activity [16]: 97%
residual activity [17]: 100%
residual activity [18]: 87%
inhibition [19]: 11.3%
residual activity [20]: 100%
residual activity [21]: 81%
residual activity [22]: 99%
inhibition [23]: 3.57%
residual activity [24]: 100%
residual activity [25]: 79%
residual activity [26]: 47%
residual activity [27]: 100%
residual activity [28]: 87%
residual activity [29]: 62%
residual activity [30]: 100%
residual activity [31]: 88%
residual activity [32]: 93%
residual activity [33]: 88%
residual activity [34]: 75%
residual activity [35]: 99%
residual activity [36]: 97%
residual activity [37]: 99%
residual activity [38]: 80%
residual activity [39]: 96%
residual activity [40]: 78%
residual activity [41]: 100%
residual activity [42]: 90%
residual activity [43]: 86%
residual activity [44]: 100%

NS(=O)(=O)c1cc(NC(=O)Cc2ccccc2)ccc1Oc1cccc(Cl)c1 [BAY-1797]
residual activity [1]: 90%
residual activity [2]: 100%
residual activity [3]: 98%
residual activity [4]: 79%
residual activity [5]: 100%
residual activity [6]: 100%
residual activity [7]: 63%
inhibition [8]: 18.2%
residual activity [9]: 100%
residual activity [10]: 88%
residual activity [11]: 81%
residual activity [12]: 89%
residual activity [13]: 91%
residual activity [14]: 69%
residual activity [15]: 99%
residual activity [16]: 100%
residual activity [17]: 53%
residual activity [18]: 91%
inhibition [19]: -2.5%
residual activity [20]: 73%
residual activity [21]: 96%
residual activity [22]: 97%
inhibition [23]: 21.6%
residual activity [24]: 90%
residual activity [25]: 87%
residual activity [26]: 98%
residual activity [27]: 98%
residual activity [28]: 82%
residual activity [29]: 89%
residual activity [30]: 66%
residual activity [31]: 90%
residual activity [32]: 82%
residual activity [33]: 89%
residual activity [34]: 87%
residual activity [35]: 96%
residual activity [36]: 91%
residual activity [37]: 79%
residual activity [38]: 87%
residual activity [39]: 99%
residual activity [40]: 93%
residual activity [41]: 80%
residual activity [42]: 100%
residual activity [43]: 100%
residual activity [44]: 100%
